Experimental data from US11559544B2, “Combination of a MAPK/ERK pathway inhibitor and a glycosaminoglycan for the treatment of cancer” (CELL RECEPTOR AG, priority 2017, dated 2023).

Tests used:
[1] = system: colorectal cancer cell lines COL0205, HT29, HCT116 and LoVo resistant to Selumetinib; test: Growth of Selumetinib-resistant cancerous cells co-incubated daily with platelets (Example 1); format: cell-based; details: in the presence of Selumetinib, serum-free, platelets 30 minutes each day
Protocol: The experiment is performed on cancerous cells that have developed a resistance against the MEK inhibitor Selumetinib. As described in Little et al. 2011 in detail cancerous cells that have developed a resistance against the MEK inhibitor Selumetinib are generated by growing colorectal cancer cell lines harboring mutations in BRAF (COL0205 and HT29 lines) or KRAS (HCT116 and LoVo lines) in the presence of increasing concentrations of AZD6244 (Selumetinib) without clonal selection until they grow apparently normally in 1 μm, 2 μM or 4 μM of the drug.
For each of the cancerous cells lines that have developed a resistance against the MEK inhibitor Selumetinib the following steps are performed:
(§1) Three populations of cells are cultivated in the presence of the inhibitor under serum-free conditions.
(§2) For a first population of the cells PPS is added to the cell culture dishes, while for a second population, i.e. the control cells, no PPS is added.
(§3) For a third population of the cells DXS is added to the cell culture dishes.
(§4) Each day all cell populations are co-incubated with platelets for 30 minutes, which are subsequently washed away.
Control cells in the growth cycle express platelet receptors on their surface. Platelets adhere to the control cells and release growth factors from their alpha granules. The control cells will take up the factors and proceed through the cell cycle, even in the presence of the MEK inhibitor.

[2] = system: colorectal cancer cell lines COL0205 and HCT116 resistant to PD184352; test: Growth of CI-1040 (PD184352)-resistant cancerous cells co-incubated daily with platelets (Example 2); format: cell-based; details: serum-free, platelets 30 minutes each day; for fate of cell population incubated with MEK inhibitor and PPS or DXS: in the presence of CI-1040 (PD184352)
Protocol: as §1, §2, §3, §4
The second experiment is performed as described for Example 1 except that cells are cultivated in the presence of the MEK inhibitor CI-1040 (PD184352).
As described in Little et al. 2011 in detail cancerous cells that have developed a resistance against the MEK inhibitor PD184352 are generated by growing colorectal cancer cell lines harboring mutations in BRAF (COL0205) or KRAS (HCT116) in the presence of increasing concentrations of […] without clonal selection until they grow apparently normally in 1 μm, 2 μM or […].
For each of the cancerous cells lines that have developed a resistance against the MEK inhibitor CI-1040 (PD184352) the cultivation steps as in Example 1 are performed, except that the cells are cultivated in the presence of the MEK inhibitor CI-1040 (PD184352).

[3] = system: NRAS mutant melanoma cell lines DO4 and MM415 resistant to trametinib; test: Growth of trametinib-resistant cancerous cells co-incubated daily with platelets (Example 3); format: cell-based, Human; details: in the presence of trametinib, serum-free, platelets 30 minutes each day
Protocol: as §1, §2, §3, §4
The third experiment is performed as described for Example 1 except that cells that have developed a resistance against the MEK inhibitor trametinib (GSK1120212) are used and cultivated in the presence of the MEK inhibitor trametinib.
As described in Vujic et al. 2014 in detail cancerous cells that have developed a resistance against the MEK inhibitor trametinib are generated by growing Human NRAS mutant melanoma cell lines DO4 and MM415 in the presence of increased concentrations of trametinib (GSK1120212) over a period of approximately 6 months.
For each of the cancerous cell lines that have developed a resistance against the MEK inhibitor trametinib the cultivation steps as in Example 1 are performed, except that the cells are cultivated in the presence of the MEK inhibitor trametinib.

[4] = system: melanoma cell line SK-MEL-28 (BRAF V600E) resistant to vemurafenib; test: Growth of vemurafenib-resistant cancerous cells co-incubated daily with platelets (Example 4); format: cell-based; details: in the presence of vemurafenib, serum-free, platelets 30 minutes each day
Protocol: as §1, §2, §3, §4

[5] = system: Hepatocellular carcinoma (HCC) Huh7 cells resistant to sorafenib; test: Growth of sorafenib-resistant cancerous cells co-incubated daily with platelets (Example 5); format: cell-based, human; details: serum-free, platelets 30 minutes each day; for fate of cell population incubated with Raf inhibitor and PPS or DXS: in the presence of sorafenib
Protocol: as §1, §2, §3, §4
The fifth experiment is performed as described for Example 1 except that cells that have developed a resistance against the Raf inhibitor sorafenib are used and cultivated in the presence of the Raf inhibitor sorafenib.
As described in Chen et al. 2011 in detail cancerous cells that have developed a resistance against the Raf inhibitor sorafenib are generated by growing the human Hepatocellular carcinoma (HCC) Huh7 in a long term exposure to sorafenib.
For each of the cancerous cells lines that have developed a resistance against the Raf inhibitor sorafenib the cultivation steps as in Example 1 are performed, except that the cells are cultivated in the presence of the Raf inhibitor sorafenib.

[6] = system: melanoma cell line A375 resistant to dabrafenib; test: Growth of dabrafenib-resistant cancerous cells co-incubated daily with platelets (Example 6); format: cell-based, human; details: serum-free, platelets 30 minutes each day; for fate of cell population incubated with Raf inhibitor and PPS or DXS: in the presence of dabrafenib
Protocol: as §1, §2, §3, §4
The sixth experiment is performed as described for Example 1 except that cells that have developed a resistance against the Raf inhibitor dabrafenib are used and cultivated in the presence of the Raf inhibitor dabrafenib.
As described in Caparorali et al. 2011 in detail cancerous cells that have developed a resistance against the Raf inhibitor dabrafenib are generated by growing the human melanoma cell line A375 in gradually increasing concentrations of dabrafenib (from 1 nM up to 1.5 μM) over a period of 4 months and subsequently maintaining the dabrafenib-resistance cell lines in CM supplemented with 1.5 μM dabrafenib.
For each of the cancerous cells lines that have developed a resistance against the Raf inhibitor dabrafenib the cultivation steps as in Example 1 are performed, except that the cells are cultivated in the presence of the Raf inhibitor dabrafenib.

[7] = system: cancerous cells resistant against an RTK inhibitor; test: Growth of RTK inhibitor-resistant cancerous cells co-incubated daily with platelets (Example 7); format: cell-based; details: in the presence of the RTK inhibitor, serum-free, platelets 30 minutes each day
Protocol: as §1, §2, §3, §4
The seventh experiment is performed as described for Example 1, except that the cancerous cells are resistant against an RTK inhibitor and the three populations of cells are cultivated in the presence of the RTK inhibitor.

[8] = fraction of Heparin's activity; cited from earlier work

Compound | adherence of platelets to the cancerous cells [1] | fate of cell population incubated with MEK inhibitor and PPS or DXS [1] | fate of cell population incubated with MEK inhibitor and PPS or DXS [2] | fate of cell population incubated with MEK inhibitor and PPS or DXS [3] | fate of cell population incubated with Raf inhibitor and PPS or DXS [4] | fate of cell population incubated with Raf inhibitor and PPS or DXS [5] | fate of cell population incubated with Raf inhibitor and PPS or DXS [6] | fate of cell population incubated with RTK inhibitor and PPS or DXS [7] | further results
Pentosan polysulfate [PPS] | prevents the platelet from adhering to the cancerous cells | perish | perish | perish | perish | perish | perish | perish | anticoagulant activity relative to that of Heparin [8]: 1/15
O=C(NOCC1CC1)c1ccc(F)c(F)c1Nc1ccc(I)cc1Cl [CI-1040] |  |  |  |  |  |  |  |  | growth of control cells with MEK inhibitor alone (no PPS/DXS) ([2]; CI-1040 (PD184352) alone): continue to grow and divide
CC(C)(C)c1nc(-c2cccc(NS(=O)(=O)c3c(F)cccc3F)c2F)c(-c2ccnc(N)n2)s1 [dabrafenib] |  |  |  |  |  |  |  |  | growth of control cells with Raf inhibitor alone (no PPS/DXS) ([6]; dabrafenib alone): continue to grow and divide
CNC(=O)c1cc(Oc2ccc(NC(=O)Nc3ccc(Cl)c(C(F)(F)F)c3)cc2)ccn1 [sorafenib] |  |  |  |  |  |  |  |  | growth of control cells with Raf inhibitor alone (no PPS/DXS) ([5]; sorafenib alone): continue to grow and divide
Dextran sulfate [DXS] | prevents the platelet from adhering to the cancerous cells | perish | perish | perish | perish | perish | perish | perish | 
